Data set [1] addresses T1, BaF3 ETV6-NTRK3-G623R stably transfected cell line (Homo sapiens, UniProt Q16288, G623R, cells depend on it).
T1 construct: fused on or other part: P41212 (Transcription factor ETV6)
As to the kind of experiment: Cell proliferation inhibition (CellTiter-Glo). The data set is classed as cell-based. The following applies: 72 hours, read-out: The half maximal inhibitory concentration IC50 against cells, BaF3 ETV6-NTRK3-G623R. For orientation: Cellular ATP, detected with luciferase, serves as a proxy for viable cell number.

The target in data set [2] is T2, Ba/F3 LMNA-NTRK1-G595R stably transfected cell line (Homo sapiens, UniProt P04629, G595R, cells depend on it).
T2 construct: fused on or other part: P02545 (Prelamin-A/C)
As to the kind of experiment: Cell proliferation inhibition (CellTiter-Glo). The data set is classed as cell-based. The following applies: 72 hours, read-out: The half maximal inhibitory concentration IC50 against cells, Ba/F3 LMNA-NTRK1-G595R.

Data set [3] deals with T3, Ba/F3 SLC34A2-ROS1-G2032R stably transfected cell line (Homo sapiens, UniProt P08922, G2032R, cells depend on it).
T3 construct: fused on or other part: O95436 (Sodium-dependent phosphate transport protein 2B)
As to the kind of experiment: Cell proliferation inhibition (CellTiter-Glo). The data set is classed as cell-based. The following applies: 72 hours, read-out: The half maximal inhibitory concentration IC50 against cells, Ba/F3 SLC34A2-ROS1-G2032R.

Data set [4] has as its target T4, Ba/F3 SLC34A2-ROS1-WT stably transfected cell line (Homo sapiens, UniProt P08922).
T4 construct: fused on or other part: O95436 (Sodium-dependent phosphate transport protein 2B)
As to the kind of experiment: Cell proliferation inhibition (CellTiter-Glo). The data set is classed as cell-based. The following applies: 72 hours, read-out: The half maximal inhibitory concentration IC50 against cells, Ba/F3 SLC34A2-ROS1-WT.

The next data set addresses T5, TrkC (Homo sapiens, UniProt Q16288).
T5 construct: purchased Reaction Biology Corp. (contract assay)
Kind of data set: Kinase inhibitory activity (33P-ATP filter binding, Reaction Biology Corp.). The data set is classed as biochemical. The following applies: read-out: The half maximal inhibitory concentration IC50 on the kinases, TrkC. The procedure, abridged:
(§1)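 Radioactivity was read by filter binding. Activity was expressed as remaining activity relative to DMSO control, and IC50 came from dose-effect curve fitting.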

In the next data set the target is T6, Ros1 (Homo sapiens, UniProt P08922).
T6 construct: purchased Reaction Biology Corp. (contract assay)
The data set is described as above. The data set is classed as biochemical. The following applies: read-out: The half maximal inhibitory concentration IC50 on the kinases, Ros1. The procedure, abridged: as §1

The next data set concerns the target T7, TrkA-G595R (Homo sapiens, UniProt P04629, G595R).
T7 construct: purchased Reaction Biology Corp. (contract assay)
Described as above. The following applies: read-out: The half maximal inhibitory concentration IC50 on the kinases, TrkA-G595R. It counts as biochemical. The procedure, abridged: as §1

Another data set concerns the target T8, TrkA (Homo sapiens, UniProt P04629).
T8 construct: purchased Reaction Biology Corp. (contract assay)
The data set is described as above. The data set is classed as biochemical. The following applies: read-out: The half maximal inhibitory concentration IC50 on the kinases, TrkA. The procedure, abridged: as §1

For a further data set, the target named is T9, TrkA-G667C (Homo sapiens, UniProt P04629, G667C).
T9 construct: purchased Reaction Biology Corp. (contract assay)
Described as above. The following applies: read-out: The half maximal inhibitory concentration IC50 on the kinases, TrkA-G667C. The data set is classed as biochemical. The procedure, abridged: as §1

A further data set deals with T10, Ros-G2032R (Homo sapiens, UniProt P08922, G2032R).
T10 construct: purchased Reaction Biology Corp. (contract assay)
Described as above. It counts as biochemical. The following applies: read-out: The half maximal inhibitory concentration IC50 on the kinases, Ros-G2032R. The procedure, abridged:
as §1

Data set [5] can be described thus: In vivo pharmacokinetic test in mice. More on the design: species or system male CD-1 mice. The following applies: for Cmax: read-out: Peak concentration Cmax; for AUC(0-t): read-out: Area under the curve AUC0-last. The procedure, abridged: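 Male CD-1 mice, 7-9 weeks, given a single IV (3 mg/kg) or intragastric dose in 5% DMSO/10% solutol/85% water. Plasma drug levels measured by LC/MS/MS at multiple time points to derive PK parameters.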

The target in data set [6] is T11, Ba/F3 LMNA-NTRK1-WT stably transfected cell line (Homo sapiens, UniProt P04629).
T11 construct: fused on or other part: P02545 (Prelamin-A/C)
Kind of data set: Cell proliferation inhibition (CellTiter-Glo). The data set is classed as cell-based. The following applies: 72 hours, read-out: The half maximal inhibitory concentration IC50 against cells, Ba/F3 LMNA-NTRK1-WT. The procedure, abridged:
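Stably transfected Ba/F3 cells (≥90% viable) were seeded overnight, then exposed in triplicate to a 9-point, 3-fold series (highest 10 μM, prepared as 10× solutions) for 72 h at 37 °C, 5% CO2. Viability was read by ATP luminescence, and IC50 came from a nonlinear sigmoidal fit.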

Setting [7] is: male, CD-1, mouse, plasma, PO dose of 10 mL/kg.

The text below walks through data of patent publication US11464780B2, “Pyrazolopyrimidine derivative and use thereof” (Simcere Pharmaceutical Co. Ltd., priority 2018, dated 2022).

The structures appear in SMILES notation. Where two headings read alike, the source gives them in different places.

T7 sequence (P04629 33-796 G595R): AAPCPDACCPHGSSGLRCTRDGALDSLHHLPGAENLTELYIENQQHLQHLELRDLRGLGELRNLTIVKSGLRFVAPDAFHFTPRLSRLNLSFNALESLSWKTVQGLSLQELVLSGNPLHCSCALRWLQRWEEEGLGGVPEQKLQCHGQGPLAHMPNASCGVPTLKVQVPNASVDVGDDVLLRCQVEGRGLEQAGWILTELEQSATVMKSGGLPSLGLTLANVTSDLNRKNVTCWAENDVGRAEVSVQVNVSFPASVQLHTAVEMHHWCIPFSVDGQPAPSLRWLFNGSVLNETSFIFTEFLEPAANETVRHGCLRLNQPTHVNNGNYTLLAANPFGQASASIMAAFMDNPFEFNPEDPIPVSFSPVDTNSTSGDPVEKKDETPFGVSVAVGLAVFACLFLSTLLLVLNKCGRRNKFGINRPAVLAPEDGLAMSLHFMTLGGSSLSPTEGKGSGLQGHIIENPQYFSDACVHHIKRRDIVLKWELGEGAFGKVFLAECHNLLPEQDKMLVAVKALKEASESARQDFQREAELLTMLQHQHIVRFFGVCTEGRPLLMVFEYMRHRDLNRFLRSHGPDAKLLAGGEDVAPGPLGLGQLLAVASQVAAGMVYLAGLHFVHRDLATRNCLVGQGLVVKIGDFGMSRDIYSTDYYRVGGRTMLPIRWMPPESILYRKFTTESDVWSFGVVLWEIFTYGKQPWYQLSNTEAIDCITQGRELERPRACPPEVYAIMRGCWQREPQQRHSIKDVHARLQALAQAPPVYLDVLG
T3 sequence (P08922 whole entry G2032R, the tested form may be a part): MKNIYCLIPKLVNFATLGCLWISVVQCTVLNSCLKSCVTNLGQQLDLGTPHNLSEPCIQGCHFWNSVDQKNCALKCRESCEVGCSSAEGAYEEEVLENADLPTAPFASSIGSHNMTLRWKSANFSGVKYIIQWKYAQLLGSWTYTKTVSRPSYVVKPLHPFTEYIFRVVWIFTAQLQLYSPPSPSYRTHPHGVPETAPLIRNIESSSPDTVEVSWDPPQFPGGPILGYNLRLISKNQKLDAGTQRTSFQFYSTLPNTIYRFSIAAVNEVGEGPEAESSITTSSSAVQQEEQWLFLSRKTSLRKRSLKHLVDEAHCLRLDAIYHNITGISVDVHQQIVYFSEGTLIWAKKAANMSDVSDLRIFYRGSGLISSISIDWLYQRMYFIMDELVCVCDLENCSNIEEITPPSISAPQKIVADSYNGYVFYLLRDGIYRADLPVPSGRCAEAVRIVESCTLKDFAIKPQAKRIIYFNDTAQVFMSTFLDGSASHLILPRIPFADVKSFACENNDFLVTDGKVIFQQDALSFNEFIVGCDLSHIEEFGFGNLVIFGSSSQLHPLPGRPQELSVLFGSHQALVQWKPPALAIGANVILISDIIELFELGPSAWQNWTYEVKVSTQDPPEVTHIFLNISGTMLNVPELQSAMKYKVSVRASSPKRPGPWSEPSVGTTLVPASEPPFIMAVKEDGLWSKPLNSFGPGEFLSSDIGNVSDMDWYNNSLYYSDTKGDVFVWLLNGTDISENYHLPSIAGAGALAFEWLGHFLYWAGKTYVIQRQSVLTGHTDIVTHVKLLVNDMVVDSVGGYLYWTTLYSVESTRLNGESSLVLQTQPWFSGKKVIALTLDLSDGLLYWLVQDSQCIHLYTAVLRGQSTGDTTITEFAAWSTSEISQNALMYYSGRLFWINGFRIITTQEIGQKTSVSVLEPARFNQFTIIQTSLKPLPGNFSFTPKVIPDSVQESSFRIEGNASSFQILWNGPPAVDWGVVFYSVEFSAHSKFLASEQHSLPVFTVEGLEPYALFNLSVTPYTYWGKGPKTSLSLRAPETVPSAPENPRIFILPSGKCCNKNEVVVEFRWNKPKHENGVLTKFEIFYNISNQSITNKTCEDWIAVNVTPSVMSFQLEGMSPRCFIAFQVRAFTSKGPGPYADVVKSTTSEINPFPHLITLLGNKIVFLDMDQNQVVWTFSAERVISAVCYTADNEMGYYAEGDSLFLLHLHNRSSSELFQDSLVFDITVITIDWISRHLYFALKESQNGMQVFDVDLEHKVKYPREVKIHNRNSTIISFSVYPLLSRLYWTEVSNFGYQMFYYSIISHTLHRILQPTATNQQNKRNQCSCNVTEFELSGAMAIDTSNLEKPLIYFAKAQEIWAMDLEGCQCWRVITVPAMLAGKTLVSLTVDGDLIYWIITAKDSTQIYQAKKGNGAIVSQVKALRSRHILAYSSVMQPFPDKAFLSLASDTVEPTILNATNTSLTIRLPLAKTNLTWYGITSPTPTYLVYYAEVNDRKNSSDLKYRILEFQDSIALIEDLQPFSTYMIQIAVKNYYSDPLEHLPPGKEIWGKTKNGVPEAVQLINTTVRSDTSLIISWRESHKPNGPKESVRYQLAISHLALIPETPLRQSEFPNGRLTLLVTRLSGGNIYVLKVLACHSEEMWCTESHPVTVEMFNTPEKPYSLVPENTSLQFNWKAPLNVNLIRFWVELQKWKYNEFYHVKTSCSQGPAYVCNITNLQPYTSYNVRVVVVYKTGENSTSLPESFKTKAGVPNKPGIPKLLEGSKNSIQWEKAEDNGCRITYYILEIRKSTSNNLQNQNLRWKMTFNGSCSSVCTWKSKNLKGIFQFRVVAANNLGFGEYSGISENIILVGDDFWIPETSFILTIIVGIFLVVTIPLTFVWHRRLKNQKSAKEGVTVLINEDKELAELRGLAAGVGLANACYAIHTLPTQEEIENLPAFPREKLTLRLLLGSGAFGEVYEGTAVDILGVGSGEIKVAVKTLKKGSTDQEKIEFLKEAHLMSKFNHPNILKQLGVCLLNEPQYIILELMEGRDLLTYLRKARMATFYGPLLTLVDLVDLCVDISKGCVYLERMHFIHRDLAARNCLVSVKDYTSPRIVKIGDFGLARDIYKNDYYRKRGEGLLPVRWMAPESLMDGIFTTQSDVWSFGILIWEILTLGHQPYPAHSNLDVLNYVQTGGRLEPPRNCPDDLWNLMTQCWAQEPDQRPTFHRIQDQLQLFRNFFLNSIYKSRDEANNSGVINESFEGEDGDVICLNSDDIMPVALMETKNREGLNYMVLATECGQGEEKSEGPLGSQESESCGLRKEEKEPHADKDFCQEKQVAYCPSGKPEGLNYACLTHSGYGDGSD
T4 sequence (P08922 whole entry, change not shown, the tested form may be a part): as the sequence (P08922 whole entry G2032R, the tested form may be a part) above, with R2032G counted along it
T2 sequence (P04629 whole entry G595R, the tested form may be a part): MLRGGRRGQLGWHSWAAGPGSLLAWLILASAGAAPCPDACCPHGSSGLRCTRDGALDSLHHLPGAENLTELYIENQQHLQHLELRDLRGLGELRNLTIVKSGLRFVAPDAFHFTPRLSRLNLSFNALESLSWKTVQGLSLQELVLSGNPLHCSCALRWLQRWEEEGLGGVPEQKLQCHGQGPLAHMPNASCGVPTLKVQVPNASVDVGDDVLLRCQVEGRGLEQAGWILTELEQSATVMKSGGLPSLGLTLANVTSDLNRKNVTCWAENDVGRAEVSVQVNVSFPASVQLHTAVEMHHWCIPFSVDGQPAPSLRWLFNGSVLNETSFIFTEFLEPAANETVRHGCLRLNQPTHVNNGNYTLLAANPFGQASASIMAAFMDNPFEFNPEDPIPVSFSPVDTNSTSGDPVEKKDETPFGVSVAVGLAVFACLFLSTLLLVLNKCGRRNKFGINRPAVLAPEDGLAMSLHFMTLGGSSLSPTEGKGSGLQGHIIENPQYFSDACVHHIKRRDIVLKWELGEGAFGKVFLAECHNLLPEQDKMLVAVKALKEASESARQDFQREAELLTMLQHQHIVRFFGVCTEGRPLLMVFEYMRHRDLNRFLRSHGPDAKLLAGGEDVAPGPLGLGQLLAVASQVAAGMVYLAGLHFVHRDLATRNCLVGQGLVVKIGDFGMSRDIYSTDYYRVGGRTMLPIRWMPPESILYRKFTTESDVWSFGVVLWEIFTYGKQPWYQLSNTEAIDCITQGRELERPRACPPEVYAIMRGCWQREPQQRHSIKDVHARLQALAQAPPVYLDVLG
T8 sequence (P04629 33-796): as the sequence (P04629 33-796 G595R) above, with R563G counted along it
T1 sequence (Q16288 whole entry G623R, the tested form may be a part): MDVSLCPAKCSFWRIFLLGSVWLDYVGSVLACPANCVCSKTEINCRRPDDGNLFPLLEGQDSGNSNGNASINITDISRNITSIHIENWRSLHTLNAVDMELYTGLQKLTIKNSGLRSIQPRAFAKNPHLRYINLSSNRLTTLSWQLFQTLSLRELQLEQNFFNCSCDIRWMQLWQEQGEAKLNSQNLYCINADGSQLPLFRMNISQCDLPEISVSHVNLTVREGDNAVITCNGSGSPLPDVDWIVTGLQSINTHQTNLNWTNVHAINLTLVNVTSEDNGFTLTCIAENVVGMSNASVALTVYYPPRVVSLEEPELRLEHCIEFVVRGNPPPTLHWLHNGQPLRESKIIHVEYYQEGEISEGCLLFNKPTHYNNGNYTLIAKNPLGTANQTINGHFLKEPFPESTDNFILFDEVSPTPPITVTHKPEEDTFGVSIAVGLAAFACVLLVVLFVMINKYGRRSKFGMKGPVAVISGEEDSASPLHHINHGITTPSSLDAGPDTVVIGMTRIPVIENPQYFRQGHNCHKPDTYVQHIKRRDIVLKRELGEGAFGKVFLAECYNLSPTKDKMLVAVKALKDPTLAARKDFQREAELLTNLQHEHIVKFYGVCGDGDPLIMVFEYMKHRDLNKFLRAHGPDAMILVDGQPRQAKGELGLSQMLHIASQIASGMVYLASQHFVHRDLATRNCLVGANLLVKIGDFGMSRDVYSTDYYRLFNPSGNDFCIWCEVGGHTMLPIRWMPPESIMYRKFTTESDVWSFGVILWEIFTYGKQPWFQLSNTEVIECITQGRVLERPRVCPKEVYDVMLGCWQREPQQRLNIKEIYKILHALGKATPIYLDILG
T9 sequence (P04629 33-796 G667C): as the sequence (P04629 33-796 G595R) above, with R563G, G635C counted along it
T11 sequence (P04629 whole entry, change not shown, the tested form may be a part): as the sequence (P04629 whole entry G595R, the tested form may be a part) above, with R595G counted along it

As to `O=C1NC2(CC2)COc2ncc(F)cc2[C@H]2CCON2c2ccn3ncc1c3n2` [WX002A], the GI50 in data set [1] was 3.4 nM; in data set [2], 6.2 nM; in data set [3], 16.1 nM; in data set [4], 2.53 nM; in data set [6], 1.26 nM. Besides, the IC50 at TrkC amounted to 0.14 nM; at Ros1 it was 0.14 nM; on TrkA-G595R it was 3.6 nM; on TrkA, 2.07 nM; on TrkA-G667C it was 7 nM; at Ros-G2032R, 0.4 nM. Moreover, in [5] (IV dose of 3 mg/kg), the “Apparent clearance Cl” value is 7.2 mL/min/kg. For the same compound, the “Apparent volume of distribution Vd” value in [5] (IV dose of 3 mg/kg) worked out at 0.49 L/kg. The “Area under the curve AUC0-last” value in data set [5] (IV dose of 3 mg/kg) worked out at 17.502 µM·h; in data set [5] (PO dose of 10 mL/kg) it was 29.787 µM·h. In data set [5] (IV dose of 3 mg/kg), the “Half life T1/2” value is 45 min. In data set [5] (PO dose of 10 mL/kg), the “Time of peak concentration Tmax” value was 30 min. Moreover, in data set [5] (PO dose of 10 mL/kg vs IV 3 mg/kg), the “Bioavailability F %” value was 51%. Further, the Cmax in [5] (PO dose of 10 mL/kg) came to 9.14 µM.
For `O=C1N[C@@H]2COC[C@@H]2Oc2ncc(F)cc2[C@H]2CCON2c2ccn3ncc1c3n2` [WX008A], the GI50 in data set [1] was found to be 3.49 nM; in data set [2] it was 3.92 nM; in [3], 38.5 nM; in data set [4] it was 5.45 nM; in data set [6], 1.6 nM. The IC50 at TrkC was found to be 0.05 nM; at Ros1, 0.16 nM; on TrkA-G595R, 2.31 nM; on TrkA, 1.61 nM; on TrkA-G667C it was 6.49 nM; at Ros-G2032R it was 0.52 nM. In addition, the “Apparent clearance Cl” value in data set [5] (IV dose of 3 mg/kg) came out at 6.7 mL/min/kg. Moreover, the Vd in [5] (male, CD-1, mouse, plasma, IV dose of 3 mg/kg, read-out: Apparent volume of distribution Vd) turned out to be 0.62 L/kg. The AUC(0-t) in data set [5] (male, CD-1, mouse, plasma, IV dose of 3 mg/kg) worked out at 18.2 µM·h; in [5] (setting [7]), 39.6 µM·h. Besides, the half-life in data set [5] (male, CD-1, mouse, plasma, IV dose of 3 mg/kg, read-out: Half life T1/2 (converted)) is 68.4 min. For the same compound, the bioavailability in data set [5] (male, CD-1, mouse, plasma, PO dose of 10 mL/kg vs IV 3 mg/kg, read-out: Bioavailability F %) came to 65%. In data set [5] (setting [7]), the Cmax stood at 12.2 µM. Besides, the Tmax in data set [5] (male, CD-1, mouse, plasma, PO dose of 10 mL/kg, read-out: Time of peak concentration Tmax) turned out to be 15 min.

One may read the bioavailability as the share of a dose that reaches the circulation, judged against a reference dose that is usually intravenous.
